Results on 59 compounds are retold here after the METLIN SMRT retention time set (Domingo-Almenara et al. 2019).

A short description of the data set: gradient 5% acetonitrile 3 min, to 50% in 2 min, to 85% in 15 min, held 3 min, 100 µL/min. Particulars: column: Zorbax Extend-C18 2.1 x 50 mm; eluents: water / acetonitrile, 0.1% formic acid. The essentials:
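Each retention time is based on an adduct peak selected computationally and verified by manual inspection. Measurements used HPLC–quadrupole time-of-flight mass spectrometry in positive and negative ionization mode on mixtures of ~100 pure standards. Chromatography ran on a Zorbax Extend-C18 column (2.1 × 50 mm, 1.8 μm) at 100 μL/min with water and acetonitrile, each containing 0.1% formic acid, and dead and dwell volumes of 40 μL and 900 μL.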
Compound `Cc1cc(Cl)ccc1OCC(=O)NCC1CCOCC1` returned an RP-LC retention time of 828 s. Turning to `COCC1(O)CCOC2(CCN(Cc3ccc(F)c(Cl)c3)CC2)C1` (centres undefined), the RP-LC retention time worked out at 560 s.

In the case of `COc1ccc(S(=O)(=O)N2CCCC(C(=O)N3CCc4ccccc4C3)C2)cc1Cl` (centres undefined), the RP-LC retention time stood at 1020 s. With `COc1ccc(/C=C\c2onc(C)c2NC(C)=O)cc1S(=O)(=O)N1CCN(c2ccccn2)CC1`, the RP-LC retention time worked out at 612 s.

`CCN1C[C@]2(OC(=O)c3ccccc3NC(C)=O)CCC(OC)[C@@]34C5C[C@@H]6C(OC)C[C@](O)([C@@H](CC23)[C@@H]14)C5(O)[C@H]6OC` (some centres undefined): the RP-LC retention time was 760 s. The figure for `CCn1c(=O)c(=O)n(CC(=O)NCc2ccc(C)o2)c2cccnc21` is 688 s; for `Cc1ccccc1-c1noc(C2CCCN2C(=O)Nc2ccc(F)cc2F)n1` (centres undefined) it is 993 s. The figure for `CCc1ccc(-c2ccc(SCC(=O)Nc3cc(Cl)ccc3OC)nn2)cc1` is 1180 s; for `CCOC(=O)c1ccc(Nc2cc(C(=O)N3CCCCC3)nc3cc(OC)c(OC)cc23)cc1` it is 737 s; for `Cc1cnc(C2CCC2)n1CC1CCN(S(=O)(=O)c2ccccc2)CC1` it is 686 s.

As for `CCc1ccccc1NS(=O)(=O)c1cc(-c2c(CC)noc2NC(C)=O)ccc1C`, the RP-LC retention time came to 855 s. The figure for `CC(C)c1ccc(S(=O)(=O)NCc2ccsc2)cc1` is 954 s. The figure for `Cc1cccc(C)c1NC(=O)NCc1ccco1` is 790 s; for `CC(O)(CNC(=O)c1cccc(C(F)(F)F)c1)c1ccccc1` (centres undefined) it is 808 s; for `CNC(=O)C1CCCN(c2nc3ncn(CC(=O)Nc4ccccc4)c(=O)c3s2)C1` (centres undefined) it is 634 s. The figure for `Cc1ccccc1-c1nc2cnccn2c1NCCC(=O)NCc1ccccc1` is 669 s. The compound `COc1cccc(NC(=O)Cn2c(=O)n(-c3ccccc3)c(=O)c3c2cc(C)n3C)c1` registered an RP-LC retention time of 789 s. For the compound `CCC(C)Nc1nc2c(c(=O)n(C)c(=O)n2C)n1C` (centres undefined), the RP-LC retention time amounted to 742 s. As for `Cc1cc(-c2nnc(-c3ccccc3)o2)c(C)n1CC(=O)NC1CCCCC1`, the RP-LC retention time is 883 s. `O=c1[nH]cc(I)cc1I` had an RP-LC retention time of 723 s. The figure for `C=CCN1C(=O)COc2ccc(-c3csc(NC(=O)c4cccc(Br)c4)n3)cc21` is 1120 s; for `CCN1C(=O)c2c(C(=O)NCc3ccccc3F)ncn2CC1(C)C(=O)NC1CCCC1` (centres undefined) it is 741 s; for `CN1CCN(C(=O)Cn2c(-c3cccs3)cc3ccccc32)CC1` it is 671 s. The figure for `Cc1sc2ccn(CC(C)C)c(=O)c2c1C(=O)N1CCCCC1` is 837 s; for `CN1C(=O)C2CCCCN2c2ccc(C(=O)NCCCN3CCOCC3)cc21` (centres undefined) it is 579 s; for `C=CCNC(=O)c1cn(-c2cc(-c3nc(CC)no3)ccn2)cn1` it is 646 s.

Compound `CCSc1ccccc1C(=O)NCc1ccsc1` yielded an RP-LC retention time of 786 s. `CCn1cc(C(=O)Nc2cccc(Cl)c2)c2cccnc21` displayed an RP-LC retention time of 938 s. As to `CN(C)C[C@@H]1CN(c2ccncn2)C[C@H]1NC(=O)c1ccc2c(c1)OCO2`, the RP-LC retention time is 527 s.

`COc1ccc(NS(=O)(=O)c2[nH]ncc2C(=O)NCc2ccc(SC)cc2)cc1` came in with an RP-LC retention time of 807 s.

The compound `CCOc1cccc(C2CC(=O)NC3=C2C(=O)C(C(=O)OC)C(C)C3)c1` (centres undefined) came in with an RP-LC retention time of 750 s. The figure for `C=CCN1C(=O)COc2ccc(-c3nc(NC(=O)CC)sc3C)cc21` is 846 s.

Compound `Cn1c(N2CCCC(C(=O)NCCN3CCN(c4ccccc4)CC3)C2)cc(=O)n(C)c1=O` (centres undefined) came in with an RP-LC retention time of 589 s.

In the case of `N#Cc1cccc(C(=O)NC2CCN(c3cc(-c4ccc(Cl)cc4)[nH]n3)C2)c1` (centres undefined), the RP-LC retention time was found to be 728 s. `COc1ccc(OCc2noc(CNC(=O)CSc3nnnn3C)n2)cc1` gave an RP-LC retention time of 658 s. Regarding `CCCN1CCN(C(=O)c2nc3ccccn3c2-c2ccsc2)CC1`, the RP-LC retention time worked out at 576 s. `CCC(c1cccs1)N1C(=O)[C@H]2CN(S(=O)(=O)c3cc(F)cc(F)c3)C[C@H]2C1=O` (some centres undefined) yielded an RP-LC retention time of 1040 s. In the case of `CC(C)N1C(=O)c2cccnc2Sc2cc(NC(=O)Cc3cccs3)ccc21`, the RP-LC retention time worked out at 834 s. The figure for `Cc1cc(C)cc(-c2nc(C3CC(=O)N(c4ccc(F)c(Cl)c4)C3)no2)c1` (centres undefined) is 1050 s; for `CCCCN(C)C(=O)Cn1c(C2CC(=O)N(c3ccc(OC)cc3)C2)nc2ccccc21` (centres undefined) it is 712 s.

Compound `COc1ccc(C(=O)NC2CCN(c3cc(-c4ccc(Cl)cc4)[nH]n3)C2)cc1OC` (centres undefined) yielded an RP-LC retention time of 738 s. The figure for `O=C(NCCCN1CCCC1=O)C1c2ccccc2CC(=O)N1Cc1ccccc1` (centres undefined) is 678 s; for `Cc1ccc(-c2ncc(C(=O)Nc3cccc(Br)c3)c(-c3ccncc3)n2)cc1` it is 1050 s; for `CCCNC(=O)N1[C@H]2CC[C@@H]1c1cnc(-c3ccc(F)cc3)nc1C2` it is 829 s. Regarding `Cc1ccc(NC(=O)Cn2nc(N3CCSCC3)c3ccccc3c2=O)cc1F`, the RP-LC retention time came out at 976 s. In turn, `COc1ccccc1-c1nnc(C2CCN(C(=O)c3ccccc3)CC2)o1` returned an RP-LC retention time of 741 s. The figure for `Cc1noc(C2CN(C(=O)NCc3ccc(F)cc3)CC23CCOCC3)n1` (centres undefined) is 698 s; for `COc1ccc(NC(=O)c2ccc(-c3ccc(-c4noc(C)n4)cc3C)cc2)cc1OCCN(C)C` it is 788 s; for `CC1CCCCN1CCCNC(=O)c1cc(S(=O)(=O)N2CCCC2)ccc1Cl` (centres undefined) it is 643 s. On to `CS(=O)(=O)N1CCC(OC2CCN(C(=O)c3cccnc3)CC2)CC1`, for which the RP-LC retention time was found to be 583 s. The compound `COc1ccccc1NC(=O)C(=O)c1cn(CC(=O)N2CCCC2)c2ccccc12` came in with an RP-LC retention time of 1130 s.

`Cc1cccc(NC(=O)c2csc(-c3cn(C)c4ncccc34)n2)c1`: the RP-LC retention time turned out to be 1040 s. In turn, `CCOc1ccc(NC(=O)Cn2c(=O)cc(-c3nc(C(C)C)no3)c3ccccc32)cc1` registered an RP-LC retention time of 1030 s. `CC(=O)Nc1nonc1-c1nnc(SCC(=O)Nc2nc(-c3ccccc3)cs2)n1C` came in with an RP-LC retention time of 833 s. The figure for `CC(C)CCNC(=O)C1Cn2cccc2C(=O)N1CC(C)C` (centres undefined) is 799 s; for `CC(C)N1CCC(CCNC(=O)C2CN(C(=O)c3ccncc3)CC23CCCCC3)CC1` (centres undefined) it is 567 s; for `Cc1ccccc1CNC(=O)C1CCCN1S(=O)(=O)c1cc2c(cc1C)NC(=O)C(C)O2` (centres undefined) it is 814 s.

For the compound `CCN1C(=O)Cc2cc(C(=O)NC3CCCCCC3)ccc21`, the RP-LC retention time is 797 s. The figure for `Cc1nn(CC(=O)NCc2ccccn2)c(=O)c2nc(-c3ccccc3)sc12` is 633 s.
